Experiments:
[1] = test system: Lgr5+ stem cells in small intestinal crypts; test: Small intestinal crypt culture from Lgr5-GFP mice in Matrigel: cell proliferation and Lgr5-GFP expression; type: cell-based, mouse; conditions: for effect to promote GFP expression: HDAC inhibitor added to ENR-C condition, 6 day crypt cultures, compared with VPA
Protocol: Crypts and single Lgr5-GFP cells were isolated as previously described (Sato et al., 2009). Briefly, the proximal half of the small intestine was harvested, opened longitudinally, and washed with cold PBS to remove luminal content. The tissue was then cut into 2-4 mm pieces with scissors and further washed 5-10 times with cold PBS by pipetting up and down using a 10-ml pipette. Tissue fragments were incubated with 2 mM EDTA in PBS for 30 min on ice. After removal of EDTA, tissue fragments were washed with PBS to release crypts. Supernatant fractions enriched in crypts were collected, passed through a 70 μm cell strainer and centrifuged at 300 g for 5 minutes. The cell pellet was re-suspended with cell culture media without growth factors and centrifuged at 150 g to remove single cells. Crypts were then cultured or used for single cell isolation. To obtain single cells, crypts were incubated in culture medium for 45 minutes at 37° C. and triturated with a glass pipette. Dissociated cells were passed through 20 μm cell strainer, negative stained with propidium iodide and single viable GFP-high cells were sorted by flow cytometry (FACS Aria, BD) as previously described (Sato et al., 2009). Small intestinal crypts isolated from Lgr5-EGFP-ires-CreERT2 mice were embedded in Matrigel and cultured under conventional culture conditions in the presence of EGF, Noggin and R-spondin 1 (collectively referred to as ENR) leading to organoids with crypts and villus-like domains and GFP^+ cells at the crypt tips, consistent with previous reports (Sato et al., 2009). Isolated crypts or single cells were cultured as previously described (Sato et al., 2009) with minimal modification. Briefly, crypts or single cells were entrapped in Matrigel and plated at the center of wells in a 24-well plate. After polymerization of Matrigel (growth factor reduced; BD Bioscience), 500 μl of culture medium (Advanced DMEM/F12 (Life Technologies)) was added containing growth factors including EGF (50 ng/ml, Life Technologies), Noggin (100 ng/ml, Peprotech) and R-spondin 1 (500 ng/ml, R&D) and small molecules including CHIR99021 (3 μM, Stemgent) and Valproic Acid (1 mM, Sigma-Aldrich). For comparison of different culture conditions, small molecules or growth factors were added to freshly isolated crypts immediately after plating in Matrigel to test the ability to minimize potential differentiation of the ISC within the crypts and thus sustain crypt cultures. Cell culture media was changed every other day. For single cell culture, cells were embedded in Matrigel containing Jagged-1 peptide (1 μM; AnaSpec) and Y-27632 (10 μM; Tocris) was added for the first 2 days. Cells were passaged either as cell colonies as previously described (Sato et al., 2009) or as single cells. For single cell passage, cell culture medium was removed and Accutase (Life Technologies) was added. After incubation at 37° C. for 10-20 minutes, cell colonies were dissociated into single cells by pipetting. Cells were then washed, embedded in fresh Matrigel and plated into 24-well plates. Cells cultured in the CV condition were passaged every 6 days at a 1:20 split ratio. Approximately half of the cultured crypts contained GFP+ cells, which is consistent with the in vivo GFP expression of Lgr5-GFP mice (FIG. 1).
The growth factors used in the ENR condition provide essential, but not adequate cues to sustain the self-renewal of Lgr5^+ stem cells. To identify factors essential to maintaining the self-renewal status of intestinal stem cells, selected small molecules that modulate signaling pathways of ISCs, such as Wnt, Notch, and BMP, were tested under the ENR condition, using the Lgr5-GFP reporter.
CHIR is a highly-specific GSK3 inhibitor that activates the Wnt/β-catenin signaling pathway (Bain et al., 2007), and has been used to maintain the self-renewal state of embryonic stem cells (Ying et al., 2008). […]

Lgr5+ stem cells = test: Controlled differentiation of Lgr5+ stem cells after CV culture (RT-PCR and staining of differentiation markers); type: cell-based, mouse; conditions: colonies from 6 days CV, then 4 days with ENR plus agents (FIG. 7B)
[2] = test system: human small intestinal crypts; test: Culture of human small intestinal crypts: LGR5 expression (RT-PCR) and cell number; type: cell-based
Text: Human small intestinal crypts were isolated from a resected normal small intestinal specimen and cultured as described in Example 1. The same cell culture solutions used in the culture of mouse small intestinal stem cells/crypts, which comprise a combination of CHIR99021 and VPA or Tubastatin A added to the ENR (EGF, Noggin, R-Spondin 1) condition, were compared to published cell culture solutions for human intestinal stem cells/crypts (Jung et al., 2011; Sato et al., 2011). RT-PCR was used to assess the maintenance of epithelial stem cells in the culture, specifically by determining the self-renewal or differentiation status. LGR5 was used as a stem cell marker and ALPI, MUC2, CHGA and LYZ were used as differentiation markers. Cell growth was assessed by counting the cell number in the cultures and by observing the morphology and size of colonies.

[3] = test system: Lgr5+ stem/progenitor cells derived from the mouse inner ear; test: Culture of inner ear (cochlear) Lgr5-GFP epithelial cells in Matrigel; type: cell-based; conditions: 8 day cultures; for cell proliferation on addition of a growth factor: EGF added to CV, others added to EGF+CV (FIG. 14D); for GFP expression on addition of a growth factor: added to EGF+CV or to the EGF+bFGF combination (FIG. 14D, 14E)
Text: The same culture condition (EGF, Noggin, R-spondin1, or “ENR”) as used in Lgr5+ small intestinal stem cell cultures was first established.
Isolated organ of Corti from Lgr5-GFP mice were dissociated into single cells using accutase and cultured in multiple combinations of soluble factors and small molecules in Matrigel for 8 days. The resulting cultures were further dissociated into single cells and analyzed using FACS. […] In addition, the combination of EGF, bFGF and IGF-1 (designated as EFI) improved cell proliferation and GFP expression compared with the ENR condition (FIG. 14A-14C).
To further investigate the effects of individual growth factors when combined with CHIR and VPA, growth factors including Mitogenic growth factors (EGF, bFGF and IGF-1) as well as the Wnt agonist R-spondin 1 in combination with CHIR and VPA were tested.

[4] = ENR-C condition with DAPT 5 μM, 3 days
[5] = combined with CHIR or Wnt3a, crypts 6 days (FIG. 9F)
[6] = multiple concentrations (FIG. 9E)

CCCC(=O)[O-].[Na+] [Butyrate, Sodium butyrate]
effect to promote GFP expression [1]: no or only moderate effects

CC(=O)Nc1ccc(C(=O)Nc2ccccc2N)cc1 [CI-994]
effect to promote GFP expression [1]: no or only moderate effects

C[C@H](NC(=O)Cc1cc(F)cc(F)c1)C(=O)N[C@H](C(=O)OC(C)(C)C)c1ccccc1 [DAPT, N-[N-(3,5-Difluorophenacetyl)-L-alanyl]-S-phenylglycine t-butyl ester]
GFP expression [1, 4]: impaired | cell proliferation [1, 4]: impaired | Alpi expression (Lgr5+ stem cells): induced expression | ChgA expression (Lgr5+ stem cells): greatly elevated | Lgr5 expression (Lgr5+ stem cells): decreased | Lysozyme expression (Lgr5+ stem cells): greatly elevated | Muc2 expression (Lgr5+ stem cells): greatly elevated

Cc1ccc2nc(NC(=O)CSc3nc4c(c(=O)n3-c3ccccc3)SCC4)sc2c1 [IWP-2, N-(6-Methyl-2-benzothiazolyl)-2-[(3,4,6,7-tetrahydro-4-oxo-3-phenylthieno[3,2-d]pyrimidin-2-yl)thio]-acetamide]
Alpi expression (Lgr5+ stem cells): preferentially induced | ChgA expression (Lgr5+ stem cells): modestly elevated | Lgr5 expression (Lgr5+ stem cells): completely abolished | Lysozyme expression (Lgr5+ stem cells): completely abolished | Muc2 expression (Lgr5+ stem cells): modestly elevated

Cn1c(/C=C/C(=O)NO)ccc1/C=C/C(=O)c1cccc(F)c1 [MC1568]
effect to promote GFP expression [1]: no or only moderate effects

Nc1ccccc1NC(=O)c1ccc(CNC(=O)OCc2cccnc2)cc1 [MS275]
effect to promote GFP expression [1]: no or only moderate effects

NC(=O)c1cccnc1 [Nicotinamide]
effect to promote GFP expression [1]: no or only moderate effects | GFP expression [1, 5]: did not promote | cell proliferation [1, 5]: did not promote | expression of stem cell marker LGR5 ([2]; added to ENR (or to the CHIR+VPA condition), RT-PCR): without great impact | proliferation of human small intestinal crypts (cell number) ([2]; cell numbers at day 9 after seeding (FIG. 25A)): increased the proliferation

O=C(CCCCCCC(=O)NO)NO [SBHA, Suberohydroxamic acid]
effect to promote GFP expression [1]: no or only moderate effects

CC(/C=C/C(=O)NO)=C\[C@@H](C)C(=O)c1ccc(N(C)C)cc1 [TSA, Trichostatin A]
GFP expression at multiple concentrations [1, 6]: maintained GFP expression | cell proliferation at higher concentration [1, 6]: marked proliferation inhibition effect

EGF: Epidermal Growth Factor
requirement of growth factor to maintain self-renewal of Lgr5+ stem cells ([1]; crypts 6 days in the CV condition (CHIR 3 μM, VPA 1 mM)): could be removed from the culture without impacting maintenance | proliferation of crypts ([1]; growth factor in the CV condition, 6 days): promoted the proliferation | cell proliferation on addition of a growth factor [3]: greatly increased

IGF-1: mitogenic growth factor
GFP expression on addition of a growth factor [3]: slightly increased

bFGF: mitogenic growth factor
cell proliferation on addition of a growth factor [3]: further increased | GFP expression on addition of a growth factor [3]: further increased

Source: US10041047B2, “Compositions and methods for epithelial stem cell expansion and culture” (The Brigham and Women's Hospital, Inc., priority 2013, dated 2018)
